Data taken from patent US4900538A (Suntory Limited, priority 1982, dated 1990).
Several values for one entry are separate records, joined by “and”; a condition that tells them apart may be missing. Identical values can stand only once. Like-named read-outs stand apart in the source and are kept apart here.

How the values were obtained:
[1] = system: Escherichia coli K 12 envA uvr B (λ), GY 5027; assay type: cell-based; conditions: for Inactivation of mutagenicity (phage induction activity) of adriamycin, dose-response: absence of S9 mix, molar ratios to adriamycin 1:1 to 30:1 (FIG. 12)
Description: Inductest III (P. Morean, A. Bailone and R. Devoret: Proc. Natl. Acad. Sci. U.S.A., Vol. 73, No. 10, 3700-3704, '76). This method is a test for mutagenicity using prophage λ induction as an index. The strains used in this method were Escherichia coli K 12 envA uvr B (λ), GY 5027 and as λ indicator GY 4015 (Amp R).
This method uses phage induction activity as an index.
Potassium sulfite was used as a sulfite compound and potassium pyrosulfite which produces 2 equivalents of hydrogensulfite ion when dissolved in water was used as acid sulfite.
Dithionite produces two equivalents of hydrogensulfite ions when dissolved in water.
The molar ratio of sodium dithionite to daunomycin was 15:1. In FIGS. 13 and 14 the symbol indicates daunomycin alone and the symbol indicates daunomycin plus sodium dithionite.
Sodium sulfite was used as a sulfite at a molar ratio of sodium sulfite to daunomycin of 30:1.

[2] = system: Salmonella typhimurium TA 98; assay: Ames test (Preincubation Method): mutagenicity and its inactivation by sulfite compounds; conditions: FIGS. 1, 6 and 7 (also FIGS. 3 and 4, Inductest III)
Procedure: This method is based on the Ames test (B. N. Ames, J. Mac Gann and E. Yamasaki: Mutation Research, Vol. 31, 347-364, '75). […] The strain used in this method was histidine requisite Salmonella typhimurium TA 100 and TA 98 (hereinafter referred to as St TA 100 and St TA 98).
At the same time, predetermined amounts of sodium sulfite, sodium hydrogensulfite (sodium acid sulfite), sodium pyrosulfite, sodium dithionite or sulphurous anhydride were dissolved in aseptic distilled water.
To 100 μl of each of the samples prepared in the above (2), 500 μl of 100 mM sodium phosphate buffer (pH 7.4) and 100 μl of a culture of St TA 100 or St TA 98 were added. Each mixture was shaken for 20 minutes at 37° C., added to 2.5 ml of a soft agar solution and spread on 0.1% glucose agar plate which had been supplemented with 0.1 μM per plate of histidine in order to create several divisions. After incubation at 37° C. for 48 hours, the number of colonies on the plate was counted as revertants. This method uses nutrient requisiteness of the above strains as an index.

male CD-1 (ICR) mice = assay: Acute toxicity in mice (survival days)
Procedure: Male CD-1 (ICR) mice (12 weeks old) were used as test animals. The temperature in the animal room was maintained at 23° C. (±3° C.) and relative humidity was kept at 30-70%. Artificial lighting was carried out by illumination and darkening at successive intervals of 12 hours.
The test substances were dissolved in distilled water and intraperitoneally administered to the animals at a dose of 10 ml/kg.
The above t-test was carried out as follows.

DNA = conditions: cited from earlier work
L1210 cells = assay: In vivo carcinostatic activity against transplanted L1210 cells (ILS, survivors); conditions: i.p.
Procedure: Male BDF1 mice (57BL/6XDBA/2) weighing 19-20 g were used in this experiment. Feed (CA-1, Nihon Kurea Kabushiki Kaisha, Meguro-ku, Tokyo, Japan) and water were freely taken. 1×10^5 L 1210 cells were intraperitoneally transplanted to a mouse in each group of 6 mice. Test substances were intraperitoneally administered to mice 24 hours after i.p. injection of L1210 cells and thereafter one time each day for 5 days. Survival days of all of the mice were recorded and carcinostatic effects of the test compounds were measured by using index of life spread (ILS %) to the control group.

[3] = system: strains used (Salmonella typhimurium, Escherichia coli); assay: Growth / survival of the strains used in the mutagenicity tests; assay type: cell-based; conditions: explains apparent reduction of mutagenicity at high levels
[4] = Japanese Patent application No. 144272/81; cited from earlier work

Structure (SMILES): O=S([O-])S(=O)(=O)[O-].[K+].[K+] [acid sulfite, potassium pyrosulfite]
- Inactivation of mutagenicity (phage induction activity) of adriamycin, dose-response [1]: the more remarkably the mutagenicity of adriamycin was inactivated

Structure (SMILES): COc1cccc2c1C(=O)c1c(O)c3c(c(O)c1C2=O)C[C@@](O)(C(=O)CO)C[C@@H]3O[C@H]1C[C@H](N)[C@H](O)[C@H](C)O1 [adriamycin]
- Apparent change of mutagenicity at high levels of the antibiotic per se [2]: appear to be reduced at high levels
- Survival days, individual mouse (male CD-1 (ICR) mice; experiment (1): adriamycin 20 mg/kg i.p. daily for 3 days, no hydrogensulfite, mice No. 1-12 in order): 0 days (8×) and 1 days (4×)
- Survival days, mean (x) (male CD-1 (ICR) mice; experiment (1): adriamycin 20 mg/kg i.p. daily for 3 days, no hydrogensulfite, n=12, s 0.5778): 0.3333 days
- Survival days, individual mouse (male CD-1 (ICR) mice; experiment (2): adriamycin alone 20 mg/kg i.p., mice No. 1-11 in order, listed as ADM): 14 days and 7 days and 6 days and 5 days and 4 days
- Survival days, mean (x) (male CD-1 (ICR) mice; experiment (2): adriamycin alone 20 mg/kg i.p., n=11, s 2.747): 7.545 days
- Base pairs of DNA reacting per one molecule (intercalation) (DNA): 3 base pairs
- Survivors (on Day 60) (L1210 cells; adriamycin 1 mg/kg/day × 5, sodium hydrogensulfite 0): 1 and 1/6
- Survivors (on Day 60) (L1210 cells; adriamycin 3 mg/kg/day × 5, sodium hydrogensulfite 0): zero and 0/6

Structure (SMILES): COc1cccc2c1C(=O)c1c(O)c3c(c(O)c1C2=O)C[C@@](O)(C(C)=O)C[C@@H]3O[C@H]1C[C@H](N)[C@H](O)[C@H](C)O1 [daunomycin]
- Apparent change of mutagenicity at high levels of the antibiotic per se [2]: appear to be reduced at high levels
- Cellular toxicity [3]: have cellular toxicity
- Base pairs of DNA reacting per one molecule (intercalation) (DNA): 3 base pairs

Structure (SMILES): O=S(O)O [hydrogensulfite ion]
- Hydrogensulfite ion in molar concentration necessary for complete inactivation of mutagenicity of adriamycin ([1]; absence of S9 mix (FIG. 5)): at least ten

Structure (SMILES): O=S([O-])S(=O)[O-].[Na+].[Na+] [sodium dithionite]
- Inactivation of mutagenicity of daunomycin (phage induction) ([1]; molar ratio dithionite to daunomycin 15:1, independently of S9 mix (FIGS. 13 and 14)): completely inactivated

Structure (SMILES): O=S([O-])O.[Na+] [sodium hydrogensulfite]
- Reduction of toxicity of adriamycin (t-test of survival days) (male CD-1 (ICR) mice; experiment (1): adriamycin 20 mg/kg for 3 days, sodium hydrogensulfite 53.8 mg/kg (FIG. 10)): significantly reduced toxicity at a confidence level of 90%

Structure (SMILES): O=S([O-])[O-].[Na+].[Na+] [sodium sulfite]
- Inactivation of mutagenicity of daunomycin (phage induction) ([1]; molar ratio sodium sulfite to daunomycin 30:1, absence and presence of S9 mix (FIGS. 15 and 16)): completely inactivated

Structure (SMILES): O=S(O)O [sulfite ion]
- Inactivation of mutagenicities of coffee, tobacco tar and spirits [4]: inactivates mutagenicities

Structure (SMILES): O=S([O-])[O-].[K+].[K+] [sulfite, potassium sulfite]
- Inactivation of mutagenicity (phage induction activity) of adriamycin, dose-response [1]: the more remarkably the mutagenicity of adriamycin was inactivated
